In ChEMBL document CHEMBL4651402, “Screening of ~5500 FDA-approved drugs and clinical candidates for anti-SARS-CoV-2 activity” (2021):
Several values for one entry are separate records, joined by “and”; a condition that tells them apart may be missing. Equal values may be shown once.

Experiments:
in vitro = details: chlorocebus sabaeus, Vero E6 (Vero C1008) cells
SARS-CoV-2 [1] = details: vero c1008
SARS-CoV-2 [2] = assay: microbe, parasite or virus in culture; assay type: functional, organism-based, Chlorocebus sabaeus, Vero C1008; details: Severe acute respiratory syndrome coronavirus 2, Vero C1008, 48 h
SARS-CoV-2 [3] = assay: microbe, parasite or virus in culture; details: Severe acute respiratory syndrome coronavirus 2, Vero C1008, 48 h

Row | Molecule | CC50 at 48 h (in vitro; CC50) [µM] | CC50 at 48 h (in vitro; pCC50) [µM] | IC50 (SARS-CoV-2 [1]) | IC50 (SARS-CoV-2 [2]; read-out: IC50) [µM] | IC50 (SARS-CoV-2 [2]; read-out: pIC50 (converted)) [µM] | pIC50 (SARS-CoV-2 [1]) | IC50 (SARS-CoV-2 [3]) [µM] | IC50 (SARS-CoV-2 [3]; read-out: pIC50 (converted)) [µM]
1 | CCCCCCCCNC(C)C(O)c1ccc(SC(C)C)cc1 (stereo unspecified) [SULOCTIDIL] | 3.27 | 3.24 | > 100 µM | > 100 | > 100 | – | – | –
2 | ATSM COPPER (II) | – | – | > 20 µM | – | – | < 4.7 | – | –
3 | RAUWOLFIA SERPENTINA | – | – | > 20 µM | – | – | < 4.7 | – | –
4 | O=c1cnn([C@@H]2O[C@H](CO)[C@@H](O)[C@H]2O)c(=O)[nH]1 [6-AZAURIDINE] | – | – | > 100 µM | – | – | – | – | –
5 | CC(Cc1ccccc1)NCCC(c1ccccc1)c1ccccc1 (stereo unspecified) [PRENYLAMINE] | 10.7 | 10.7 | 8.51 µM and > 20 µM | > 100 | > 100 | 5.07 and < 4.7 | – | –
6 | O=[N+]([O-])c1ccc(Cl)c([N+](=O)[O-])c1 [DINITROCHLOROBENZENE] | – | – | > 20 µM | – | – | < 4.7 | – | –
7 | OCCN1CCN(CC/C=C2/c3ccccc3Sc3ccc(Cl)cc32)CC1 [ZUCLOPENTHIXOL] | 6.68 | 6.61 | 7.24 µM and > 20 µM | > 100 | > 100 | 5.14 and < 4.7 | – | –
8 | O=S(=O)(O)c1cc(O)ccc1O [DOBESILIC ACID] | – | – | – | – | – | < 4.7 | – | –
9 | CN(C)c1ccc(O)c2c1C[C@H]1C[C@H]3[C@H](N(C)C)C(O)=C(C(N)=O)C(=O)[C@@]3(O)C(O)=C1C2=O.Cl [MINOCYCLINE HYDROCHLORIDE] | – | – | – | – | – | < 4.7 | – | –
10 | CC(C)(NC(=O)O[C@@H]1CN2CCC1CC2)c1csc(-c2ccc(F)cc2)n1 | – | – | > 20 µM | – | – | < 4.7 | – | –
11 | O=C(O)c1cc(=O)c2c(OCC(O)COc3cccc4oc(C(=O)O)cc(=O)c34)cccc2o1.[NaH] | – | – | – | – | – | < 4.7 | – | –
12 | CNCC(O)C(O)C(O)C(O)CO.Cc1c(Nc2ncccc2C(=O)O)cccc1C(F)(F)F | – | – | – | – | – | < 4.7 | – | –
13 | O=C(O)Cc1cn(-c2ccccc2)nc1-c1ccc(Cl)cc1.O=C(O)Cc1cn(-c2ccccc2)nc1-c1ccc(Cl)cc1.[Ca+2] | – | – | – | – | – | < 4.7 | – | –
14 | CC1(C)[C@H](C(=O)[O-])N2C(=O)C[C@H]2S1(=O)=O.[Na+] [SULBACTAM SODIUM] | – | – | – | – | – | < 4.7 | – | –
15 | CC(=O)O[C@H]1CC[C@@]2(C)C(=CC[C@@H]3[C@@H]2CC[C@]2(C)C(c4cccnc4)=CC[C@@H]32)C1 [ABIRATERONE ACETATE] | 9.89 | 9.77 | – | > 25.1 | > 25.1 | – | > 100 | > 100
16 | Cc1cccc(C)c1OCC(=O)N[C@@H](Cc1ccccc1)[C@@H](O)C[C@H](Cc1ccccc1)NC(=O)[C@H](C(C)C)N1CCCNC1=O [LOPINAVIR] | ~33.7 | ~33.9 | – | ~15.7 | ~15.5 | – | 22.9 | 22.9
17 | NYSTATIN | – | – | > 20 µM | – | – | < 4.7 | – | –
18 | COc1ccc2c(c1)N(C[C@H](C)CN(C)C)c1ccccc1S2 [LEVOMEPROMAZINE] | 11.6 | 11.5 | – | > 50.1 | > 50.1 | – | 11.8 | 11.7
19 | OCc1cc(C(O)CNCCCCCCOCCCCc2ccccc2)ccc1O (stereo unspecified) [SALMETEROL] | 18.6 | 18.6 | – | > 100 | > 100 | – | 19.1 | 19.1
20 | CCCCCCC(C)(C)c1cc(O)c2c(c1)OC(C)(C)C1CCC(=O)CC21 (stereo unspecified) [NABILONE] | 11.1 | 11 | – | > 25.1 | > 25.1 | – | 8.91 | 8.91
21 | C#CC1(OC(C)=O)CCC2C3CCC4=C/C(=N/O)CCC4C3CCC21CC (stereo unspecified) | 20.9 | 20.9 | – | > 100 | > 100 | – | > 100 | > 100
22 | c1ccc(C(c2ccccc2)N2CCN(CCCC3(c4ccccc4)OCCO3)CC2)cc1 [DOTARIZINE] | 17.4 | 17.4 | – | 10 | 10 | – | > 20 | > 20
